In PubChem BioAssay (NCI):
Values joined by “and” are separate entries in the source; they are usually repeats but may differ in a detail not shown here. Identical values can stand only once.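 Following 48 hours of exposure in 96-well plates, responses at five concentrations were used to interpolate endpoints linearly. Abbreviation: GI50, concentration required for 50% inhibition of growth. TGI is the concentration that stops growth completely.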

Legend:
Assay in all cases: NCI anticancer screen, dose series, 48 h
UO-31 renal = tested on: UO-31 renal
PC-3 prostate = tested on: PC-3 prostate
HOP-62 NSCLC = tested on: HOP-62 NSCLC
MCF7 breast = tested on: MCF7 breast
NCI/ADR-RES ovarian = tested on: NCI/ADR-RES ovarian
K-562 leukemia = tested on: K-562 leukemia
OVCAR-8 ovarian = tested on: OVCAR-8 ovarian
SN12C renal = tested on: SN12C renal
SF-539 CNS = tested on: SF-539 CNS
A549 NSCLC = tested on: A549 NSCLC

Structure (SMILES)	GI50 (UO-31 renal)	TGI (UO-31 renal)	GI50 (PC-3 prostate) [µM]	TGI (PC-3 prostate)	GI50 (HOP-62 NSCLC) [µM]	TGI (HOP-62 NSCLC)	GI50 (MCF7 breast) [µM]	TGI (MCF7 breast)	GI50 (NCI/ADR-RES ovarian)	TGI (NCI/ADR-RES ovarian)	GI50 (K-562 leukemia) [µM]	TGI (K-562 leukemia) [µM]	GI50 (OVCAR-8 ovarian) [µM]	TGI (OVCAR-8 ovarian)	GI50 (SN12C renal) [µM]	TGI (SN12C renal)	GI50 (SF-539 CNS) [µM]	TGI (SF-539 CNS)	GI50 (A549 NSCLC) [µM]	TGI (A549 NSCLC)
COc1ccc(C(=O)COC(=O)[C@H](C[Se][Se]C[C@H](NC(=O)c2ccc(Br)cc2F)C(=O)OCC(=O)c2ccc(OC)cc2)NC(=O)c2ccc(Br)cc2F)cc1	0.579 µM	1.68 µM	0.318	1.41 µM	0.415	1.83 µM	1.52	4.1 µM	0.399 µM	1.39 µM	3.3	> 55	0.513	1.86 µM	1.04	2.49 µM	0.321	0.976 µM	0.421	3.79 µM
CC(=O)Nc1cc(N(CCOS(C)(=O)=O)CCOS(C)(=O)=O)ccc1N=O		> 100 µM				> 100 µM						> 100		> 100 µM				> 100 µM		> 100 µM
COc1cc(OC)c(/C=C\c2ccnc3ccccc23)c(OC)c1		3.55 µM		23 µM		18.6 µM		21.4 µM		10.2 µM		2.24				16.3 µM		12.4 µM		18.6 µM
COc1ccc2c(CN3CCC(C(=O)O)CC3)cc3cc4c(cc3c2c1)OCO4			2.26	6.05 µM	2.71	11.4 µM	3.1	18.3 µM	2.35 µM	6.99 µM	2.66	11.3	1.28	4.86 µM	1.27	4.08 µM	3.38	14 µM	1.77	4.34 µM
C=C(C)[C@@H]1CC[C@]2(C(=O)O)CC[C@]3(C)[C@H](CC[C@@H]4[C@@]5(C)C[C@@H](CC#Cc6ccc(C(F)(F)F)cc6)[C@H](O)C(C)(C)[C@@H]5CC[C@]43C)[C@@H]12	6.52 µM	> 100 µM					2.89	> 100 µM	47.3 µM	> 100 µM	1.93	> 100	3.55	> 100 µM						
O=C(/C(=C\c1ccc([N+](=O)[O-])cc1)S(=O)Cc1ccc(F)cc1)c1ccc(F)cc1 (stereo unspecified)	1.52 µM	3.23 µM	1.69	3.47 µM	2.74	8.28 µM			2.43 µM	6.98 µM			2.17	5.34 µM	1.9	3.99 µM	1.69	3.37 µM	2.83	10.2 µM
CCCCCCCCOCC(O)COC(=O)CCCCCCC (stereo unspecified)		> 100 µM				> 100 µM						> 100		> 100 µM		> 100 µM				> 100 µM
CCOC(=O)CSC(=O)NCCCl		> 100 µM				> 100 µM					29	> 100		> 100 µM		> 100 µM		> 100 µM		> 100 µM
NS(=O)(=O)c1ccc(NC2=CC(=O)C(=O)c3ccccc32)cc1		> 100 µM				> 100 µM						> 100		> 100 µM		> 100 µM		> 100 µM		> 100 µM
C/C(=C\CCc1ccoc1)CC/C=C(\C)CCCN1CCOCC1	10.3 µM	24.6 µM	2.02	10.5 µM	12.2	25.6 µM	2.71	11.2 µM	12.3 µM	27.5 µM			13.7	28 µM	6.83	21 µM	5.49	19.7 µM	9.08	23.2 µM
CC(/C(=N\Nc1ccccc1)c1ccc(O)cc1)C1C(=O)Oc2ccccc21 (stereo unspecified)		> 100 µM				> 100 µM						> 100		> 100 µM		> 100 µM		> 100 µM		> 100 µM
COc1c(C(=O)c2ccc([N+](=O)[O-])cc2)cc(C(C)(C)C)cc1C(C)(C)C		> 100 µM				> 100 µM						> 100		> 100 µM		> 100 µM		> 100 µM		> 100 µM
CCN(CC)CCOc1ccccc1/C=C/c1noc2ccccc12		19.3 µM		19.8 µM		31.3 µM		27.9 µM		38.8 µM		> 100		24.8 µM		24.6 µM		31.8 µM		
Cc1ccc2ncnc(N(CC(C)C)CC(C)C)c2c1	22.2 µM	> 100 µM	11	27.8 µM	15.5	31.2 µM	21.5	> 100 µM	10.4 µM	24.6 µM	3.69	21.7	12.1	31.9 µM	17.9	38.7 µM			9.43	25.3 µM
COC(=O)C(C(=O)C(=O)Nc1nc(=S)[nH][nH]1)c1csc(-n2nc(-c3ccccc3)cc2-c2ccccc2)n1 (stereo unspecified)		> 100 µM				> 100 µM						> 100		> 100 µM		> 100 µM				> 100 µM
COC(=O)/C=C(\C(=O)OC)c1c2c3c(cc(OC)c(OC)c3c3ccccc13)CCN2C		> 100 µM				76.7 µM						90.8		> 100 µM		> 100 µM		75.4 µM		> 100 µM
CCCCCCCCN(CCCCCCCC)CCCCCCNc1cc(OC)cc2cccnc12	10.9 µM	24.4 µM	4.18	19 µM	11.1	23.5 µM	3.33	12.4 µM	10.4 µM	23.4 µM			3.39	12.4 µM	2.58	6.9 µM	3.18	11.5 µM	16.3	34.8 µM
COC(=O)C(CC(C)C)NC(=O)NC12CC3CC(CC(F)(C3)C1)C2 (stereo unspecified)		> 100 µM				> 100 µM						> 100		> 100 µM				> 100 µM		> 100 µM
CC1(C)CCC2=C(O1)c1ccccc1C(=O)C2=O	1.54 µM and 1.05 µM	2.89 µM and 2.23 µM	1.24	3.01 µM and 6.31 µM	1.82	4.14 µM and 1.48 µM	1.53	3.6 µM and 1.05 µM	0.445 µM and 0.481 µM	2.69 µM and 1.8 µM			0.53	2.27 µM and 1.59 µM	0.855	2.2 µM and 1.04 µM	1.63	2.99 µM and 0.918 µM	2.15	5.14 µM and 1.73 µM
CC1CC(=O)Nc2ccccc2N1C(=O)CN1CCC(CCCCN(C)C)CC1 (stereo unspecified)		> 100 µM				> 100 µM						> 100		> 100 µM		> 100 µM		> 100 µM		> 100 µM

Structure (SMILES)	GI50 (UO-31 renal)	TGI (UO-31 renal)	GI50 (PC-3 prostate) [µM]	TGI (PC-3 prostate)	GI50 (HOP-62 NSCLC) [µM]	TGI (HOP-62 NSCLC)	GI50 (MCF7 breast) [µM]	TGI (MCF7 breast)	GI50 (NCI/ADR-RES ovarian)	TGI (NCI/ADR-RES ovarian)	GI50 (K-562 leukemia) [µM]	TGI (K-562 leukemia) [µM]	GI50 (OVCAR-8 ovarian) [µM]	TGI (OVCAR-8 ovarian)	GI50 (SN12C renal) [µM]	TGI (SN12C renal)	GI50 (SF-539 CNS) [µM]	TGI (SF-539 CNS)	GI50 (A549 NSCLC) [µM]	TGI (A549 NSCLC)
Cc1ccc(-c2cc3c(SCC(=O)Nc4cc(C(F)(F)F)ccc4Cl)nccn3n2)cc1	> 100 µM	> 100 µM	> 100	> 100 µM	58.2	> 100 µM	> 100	> 100 µM	> 100 µM	> 100 µM	> 100	> 100	29.8	> 100 µM	> 100	> 100 µM	8.5	> 100 µM		
O=C(c1ccccc1)[C@H]1Nc2ccc(Cl)cc2C2c3ccccc3CC21 (stereo partly specified)		> 100 µM				> 100 µM						> 100		> 100 µM		> 100 µM		> 100 µM		> 100 µM
CC1C[C@H](C)CC(C(O)CC2CC(=O)N(Cc3ccccc3)C(=O)C2)C1O (stereo partly specified)		> 100 µM				> 100 µM						> 100		> 100 µM		> 100 µM		> 100 µM		> 100 µM
O=C(c1ccccc1)N1C2CCC1C(C(F)(F)F)=C2C(F)(F)F		> 100 µM				> 100 µM						> 100		> 100 µM		> 100 µM		> 100 µM		> 100 µM
CNCc1cc(OC)ccc1-c1ccc(OC)c(OC)c1OC		> 100 µM				> 100 µM						> 100		> 100 µM		> 100 µM		> 100 µM		> 100 µM
CC1=NOC(=O)/C1=C/c1cccc2ccccc12		> 100 µM				> 100 µM						> 100		> 100 µM		> 100 µM		> 100 µM		> 100 µM
COC(=O)C(Cc1cc(OC)c(OC)c(OC)c1)c1ccc(OC)cc1 (stereo unspecified)		> 100 µM				> 100 µM						> 100		> 100 µM		> 100 µM		> 100 µM		> 100 µM
O=C1c2ccccc2S(=O)(=O)N1CSC(=S)N1CCCCC1	> 100 µM	> 100 µM			> 100	> 100 µM		> 100 µM	> 100 µM	> 100 µM	> 94.6	> 100	> 100	> 100 µM	> 46.5	> 100 µM	> 100	> 100 µM	> 100	> 100 µM
Cc1ccc(NC(=O)C(=O)C(C#N)c2nc(-c3ccc(-c4ccccc4)cc3)cs2)c(C)c1 (stereo unspecified)		> 100 µM				> 100 µM								> 100 µM		> 100 µM		> 100 µM		> 100 µM
O=C1c2ccccc2C(=O)N1CCN(CCN1C(=O)c2ccccc2C1=O)Cn1cccn1		> 100 µM				> 100 µM						> 100		> 100 µM		> 100 µM				> 100 µM
CC(=O)c1ccc(OCC(O)CO)cc1 (stereo unspecified)		> 100 µM				> 100 µM						> 100		> 100 µM		> 100 µM		> 100 µM		> 100 µM
Cc1cc2c(cc1C)[n+](=O)c(C(=O)C/C(=N/OCCCc1ccccc1)C(=O)Nc1cc(Cl)ccc1Cl)c(C)n2[O-]						> 100 µM						> 100		> 100 µM		> 100 µM		> 100 µM		> 100 µM
CN(C)c1ccc(N=C2C=CC(=[N+](C)C)C=C2)cc1	11.3 µM	47.6 µM	4.89	22.7 µM	4.21	> 100 µM	4.03	17.6 µM	19.1 µM	> 100 µM			4.51	> 100 µM	13.7	> 100 µM	11.7	45.8 µM	5.21	> 100 µM
OCC(O)C(O)C(O)c1nn(-c2ccc(Cl)cc2)c2nc3cc(Cl)c(Cl)cc3nc12 (stereo unspecified)		> 100 µM				71 µM						> 100		> 100 µM		> 100 µM		> 100 µM		> 100 µM
O=C1NC(=O)C(=C/C=C/c2ccccc2)C(=O)N1			4.59	23.4 µM	12	25.5 µM	2.97	20.1 µM	3.78 µM	16.7 µM	4.94	70	3.01	17.8 µM	3.27	19.5 µM	2.33	6.3 µM	7.06	28 µM
O=C(O)C[C@H]1CCCCC12CCOC2=O (stereo partly specified)		> 100 µM				> 100 µM						> 100		> 100 µM		> 100 µM		> 100 µM		> 100 µM
NNC(=O)CNC(=O)c1ccc(Cl)cc1Cl		> 100 µM				> 100 µM						> 100		> 100 µM		> 100 µM		> 100 µM		> 100 µM
N#Cc1c2c(c(N=P(c3ccccc3)(c3ccccc3)c3ccccc3)n3c1nc1ccccc13)CCCC2		79.4 µM				71.5 µM						38.2		> 100 µM		39.6 µM		> 100 µM		> 100 µM
Clc1cccc(Cl)c1C1CSc2ccccc2N=C1c1ccccc1 (stereo unspecified)	1.42 µM	4.57 µM	5.6	20.9 µM	20.7	41 µM	0.595	11.6 µM	4.14 µM	32 µM			3.34	10.2 µM	3.35	12.3 µM	6.08	18.9 µM	12.2	28.1 µM
CC1SC2=NC3=C(c4ccccc4C3=O)C(c3ccc(Cl)cc3)N2C1=O (stereo unspecified)		> 100 µM				> 100 µM						> 100		> 100 µM		> 100 µM				> 100 µM
